pIC50: −log10 of the molar value.
Tested on: 361931-004-R-J1-PDC multicell spheroid viability
Experiment: Anticancer human tumor 361931-004-R-J1-PDC patient-derived colon adenocarcinoma cell line growth inhibition [PI3K]
Details: for pIC50: curve of first compound; for viability, T/C: stronger effect = lower value; active means viability on the fitted dose curve at most 10% of control; inactive means the rest
In short: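 Viability of mixed-cell spheroids was determined after exposure to pairwise combinations, one partner being inavolisib, alpelisib, duvelisib or copanlisib. Highest tested concentration matched clinical Cmax where known and 10 microM where not, descending in half-log steps.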

[1] = second compound 0.00316 µM, first compound 0.0316 µM
[2] = second compound 0.00316 µM, first compound 0.1 µM
[3] = second compound 0.00316 µM, first compound 0.316 µM
[4] = second compound 0.00316 µM, first compound 1 µM
[5] = second compound 0.00316 µM, first compound 3.16 µM
[6] = second compound 0.00316 µM, first compound 10 µM
[7] = second compound 0.01 µM, first compound 0.0316 µM
[8] = second compound 0.01 µM, first compound 0.1 µM
[9] = second compound 0.01 µM, first compound 0.316 µM
[10] = second compound 0.01 µM, first compound 1 µM
[11] = second compound 0.01 µM, first compound 3.16 µM
[12] = second compound 0.01 µM, first compound 10 µM
[13] = second compound 0.0316 µM, first compound 0.0316 µM
[14] = second compound 0.0316 µM, first compound 0.1 µM
[15] = second compound 0.0316 µM, first compound 0.316 µM
[16] = second compound 0.0316 µM, first compound 1 µM
[17] = second compound 0.0316 µM, first compound 3.16 µM
[18] = second compound 0.0316 µM, first compound 10 µM
[19] = second compound 0.1 µM, first compound 0.0316 µM
[20] = second compound 0.1 µM, first compound 0.1 µM
[21] = second compound 0.1 µM, first compound 0.316 µM
[22] = second compound 0.1 µM, first compound 1 µM
[23] = second compound 0.1 µM, first compound 3.16 µM
[24] = second compound 0.1 µM, first compound 10 µM
[25] = second compound 0.316 µM, first compound 0.0316 µM
[26] = second compound 0.316 µM, first compound 0.1 µM
[27] = second compound 0.316 µM, first compound 0.316 µM
[28] = second compound 0.316 µM, first compound 1 µM
[29] = second compound 0.316 µM, first compound 3.16 µM
[30] = second compound 0.316 µM, first compound 10 µM
[31] = second compound 1 µM, first compound 0.0316 µM
[32] = second compound 1 µM, first compound 0.1 µM
[33] = second compound 1 µM, first compound 0.316 µM
[34] = second compound 1 µM, first compound 1 µM
[35] = second compound 1 µM, first compound 3.16 µM
[36] = second compound 1 µM, first compound 10 µM
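Further: spheroids exposed to agents for seven days before readout.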

C=CC(=O)N1CCN(c2nc(=O)n(-c3c(C)ccnc3C(C)C)c3nc(-c4c(O)cccc4F)c(F)cc23)C(C)C1 (stereo unspecified) + CC(Nc1ccc2c(c1)OCCn1cc(N3C(=O)OCC3C(F)F)nc1-2)C(N)=O
inactive: viability, T/C [1] 99.7% | viability, T/C [2] 103% | viability, T/C [3] 101% | viability, T/C [4] 92.7% | viability, T/C [5] 99.8% | viability, T/C [6] 81.2% | viability, T/C [7] 107% | viability, T/C [8] 100% | viability, T/C [9] 99.5% | viability, T/C [10] 99.5% | viability, T/C [11] 106% | viability, T/C [12] 89.8% | viability, T/C [13] 104% | viability, T/C [14] 103% | viability, T/C [15] 99.2% | viability, T/C [16] 97.5% | viability, T/C [17] 97% | viability, T/C [18] 76.2% | viability, T/C [19] 97.4% | viability, T/C [20] 91.6% | viability, T/C [21] 96.9% | viability, T/C [22] 101% | viability, T/C [23] 93.5% | viability, T/C [24] 72.2% | viability, T/C [25] 88.7% | viability, T/C [26] 84.7% | viability, T/C [27] 81.6% | viability, T/C [28] 89.4% | viability, T/C [29] 86% | viability, T/C [30] 66% | viability, T/C [31] 75.5% | viability, T/C [32] 78.2% | viability, T/C [33] 80% | viability, T/C [34] 80.1% | viability, T/C [35] 86.7% | viability, T/C [36] 59.4%
< 5.00: pIC50 (second compound 0.00316 µM) | pIC50 (second compound 0.01 µM) | pIC50 (second compound 0.0316 µM) | pIC50 (second compound 0.1 µM) | pIC50 (second compound 0.316 µM) | pIC50 (second compound 1 µM)

Cn1ncnc1[C@H]1c2n[nH]c(=O)c3cc(F)cc(c23)N[C@@H]1c1ccc(F)cc1 + COc1c(OCCCN2CCOCC2)ccc2c3n(c(=NC(=O)c4cnc(N)nc4)nc12)CCN3
inactive: viability, T/C (second compound 0.00316 µM, first compound 0.000316 µM) 105% | viability, T/C (second compound 0.00316 µM, first compound 0.001 µM) 106% | viability, T/C (second compound 0.00316 µM, first compound 0.00316 µM) 97.9% | viability, T/C (second compound 0.00316 µM, first compound 0.01 µM) 98.2% | viability, T/C [1] 101% | viability, T/C [2] 87.8% | viability, T/C (second compound 0.01 µM, first compound 0.000316 µM) 91.1% | viability, T/C (second compound 0.01 µM, first compound 0.001 µM) 97.1% | viability, T/C (second compound 0.01 µM, first compound 0.00316 µM) 102% | viability, T/C (second compound 0.01 µM, first compound 0.01 µM) 93% | viability, T/C [7] 91.5% | viability, T/C [8] 84.9% | viability, T/C (second compound 0.0316 µM, first compound 0.000316 µM) 97% | viability, T/C (second compound 0.0316 µM, first compound 0.001 µM) 87% | viability, T/C (second compound 0.0316 µM, first compound 0.00316 µM) 90% | viability, T/C (second compound 0.0316 µM, first compound 0.01 µM) 82.7% | viability, T/C [13] 87.3% | viability, T/C [14] 77.9% | viability, T/C (second compound 0.1 µM, first compound 0.000316 µM) 81.7% | viability, T/C (second compound 0.1 µM, first compound 0.001 µM) 73.5% | viability, T/C (second compound 0.1 µM, first compound 0.00316 µM) 78.6% | viability, T/C (second compound 0.1 µM, first compound 0.01 µM) 72.4% | viability, T/C [19] 80.3% | viability, T/C [20] 64.7% | viability, T/C (second compound 0.316 µM, first compound 0.000316 µM) 50.5% | viability, T/C (second compound 0.316 µM, first compound 0.001 µM) 53.9% | viability, T/C (second compound 0.316 µM, first compound 0.00316 µM) 48.3% | viability, T/C (second compound 0.316 µM, first compound 0.01 µM) 41.5% | viability, T/C [25] 41% | viability, T/C [26] 39.2% | viability, T/C (second compound 1 µM, first compound 0.000316 µM) 15.9% | viability, T/C (second compound 1 µM, first compound 0.001 µM) 19.1% | viability, T/C (second compound 1 µM, first compound 0.00316 µM) 20.5% | viability, T/C (second compound 1 µM, first compound 0.01 µM) 19.7% | viability, T/C [31] 16.3% | viability, T/C [32] 17.6%
8.96: pIC50 (second compound 0.316 µM)
< 7.00: pIC50 (second compound 0.00316 µM) | pIC50 (second compound 0.01 µM) | pIC50 (second compound 0.0316 µM) | pIC50 (second compound 0.1 µM)
> 9.50: pIC50 (second compound 1 µM)

Cn1ncc(Cl)c1-c1cc(C(=O)NC(CN)Cc2cccc(F)c2)sc1Cl (stereo unspecified) + CC(Nc1ccc2c(c1)OCCn1cc(N3C(=O)OCC3C(F)F)nc1-2)C(N)=O
6.18: pIC50 (second compound 1 µM)
6.16: pIC50 (second compound 0.0316 µM)
inactive: viability, T/C [1] 92.5% | viability, T/C [2] 91.9% | viability, T/C [3] 76.6% | viability, T/C [4] 50.9% | viability, T/C [5] 32.2% | viability, T/C [6] 22.6% | viability, T/C [7] 99% | viability, T/C [8] 94.5% | viability, T/C [9] 68.7% | viability, T/C [10] 48.4% | viability, T/C [11] 29% | viability, T/C [12] 15.4% | viability, T/C [13] 103% | viability, T/C [14] 110% | viability, T/C [15] 75.2% | viability, T/C [16] 37.3% | viability, T/C [17] 25.8% | viability, T/C [18] 12.8% | viability, T/C [19] 85% | viability, T/C [20] 87.7% | viability, T/C [21] 67% | viability, T/C [22] 41.6% | viability, T/C [23] 26.1% | viability, T/C [24] 12.8% | viability, T/C [25] 90.1% | viability, T/C [26] 77.9% | viability, T/C [27] 68.8% | viability, T/C [28] 54.2% | viability, T/C [29] 22.4% | viability, T/C [30] 14.6% | viability, T/C [31] 82.6% | viability, T/C [32] 79.4% | viability, T/C [33] 59.5% | viability, T/C [34] 45.1% | viability, T/C [35] 24% | viability, T/C [36] 16.1%
6.02: pIC50 (second compound 0.316 µM)
6.05: pIC50 (second compound 0.01 µM)
5.96: pIC50 (second compound 0.00316 µM)
6.14: pIC50 (second compound 0.1 µM)
